Source: patent publication US20220267352A1, “RAPAMYCIN ANALOGS AND USES THEREOF” (Anakuria Therapeutics, Inc., priority 2021, published 2022)

Legend:
human adipocytes = test system: human adipocytes; design: dose or concentration left out as unconfirmed; details: therapeutic concentration; cited from earlier work
Lmna−/− mice = details: short-term treatment; cited from earlier work
PC3 cells = details: 1 or 24 hour treatment; cited from earlier work
[1] = test system: pS6K1 T389 and pAkt S473 in PC3 cells; test: Western blot based pS6K1 and pAKT assay at 24 and 48 hour timepoints; assay type: cell-based
Experimental: Example 57: Western Blot Based pS6K1 and pAKT Assay at 24 and 48 Hour Timepoints
Assay Protocol: • 1. Seed six well plate with 500,000 PC3 cells per well and incubate for 20˜24 hour. • 2. Add compounds into the cell plate. Incubate for 24 to 48 hours. • 4. Plate is placed on ice and the media is removed via aspiration. The wells are washed with 1 mL of 1x PBS and then fully aspirated. • 5. 110 μL of 1% Triton Lysis Buffer is added and each well is scraped vigorously. • 6. Cell homogenates are transferred to 1.5 mL eppendorf tubes on ice and spun down at 4° C. for 10 minutes at 10,000 rpm. • 7. Protein concentration of resulting cell lysates were quantified utilizing a Bradford assay and the samples run analyzed via Western blot on 4-12% Bis/Tris gels with 1×MES buffer. • 8. The gels were transferred onto membranes at 50V for 100 minutes, blocked with Odyssey Blocking buffer for 30 minutes then incubated overnight with primary antibody (pS6K1 T389 Rabbit or pAkt S473 Rabbit) overnight at 4° C. on a rotator. • 9. The membranes were washed 3× with TBS-T with a 5 minute incubation between each wash then incubated with secondary antibody (LiCor IRDye 800 Donkey Anti Rabbit) for at least 30 minutes. • 10. The membranes were washed 3× with TBS-T with a 5 minute incubation between each wash. • 11. The gels were then incubated for 5 minutes with PBS at room temperature then imaged using a Li-Cor.
Compounds that are not selective by comparing pS6K1 and pAKT IC50 by kinase assays are indicated by “NO” in the “mTORC1 selective @ 90 min” column of Table 4. […] Compounds that are not selective at the 24 hrs mark are indicated by “NO” in the “mTORC1 selective @ 24 hrs” column of Table 4. “N/A” stands for “not assayed” and “N/C” stands for “not calculated”.

[2] = test system: p-Akt 1/2/3 (Ser473) in MCF-7 cells; test: AlphaLISA Ultra pAKT assay; assay type: cell-based; details: Homo sapiens, 1.5 h; MCF7 cells, 90 min
Summary of the method: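 MCF-7 cells (16,000˜20,000 per well in 36 μL medium) were seeded in Corning 3701 plates for 20˜24 hour, refreshed with new medium for 90 minutes, then given 12 μL of 4× compound (0.5% final DMSO). Cells were lysed with 2× lysis buffer, and lysate was analyzed by AlphaLISA Ultra pAKT using acceptor and donor beads, read on an EnSpire reader.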

[3] = test system: p-p70 S6 Kinase (Thr389) in MCF-7 cells; test: AlphaLISA Ultra pS6K1 assay; assay type: cell-based; details: Homo sapiens, 1.5 h; MCF7 cells, 90 min
Summary of the method: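 Phospho-S6K1 (Thr389) quantified by AlphaLISA Ultra read-out (2 h acceptor, then 2 h donor beads) in lysates of MCF-7 cells. Cells were plated 20–24 h before, refed 2 h, exposed to compounds for 90 min at 0.5% final DMSO, and lysates stored at −80 °C.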

mTORC1 over mTORC2 = mTORC1 over mTORC2 selectivity by comparing pS6K1 and pAKT IC50; assay type: cell-based; details: by comparing pS6K1 and pAKT IC50, 90 min
Summary of the method: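 MCF-7 cells were treated with compounds (0.5% final DMSO) for 90 minutes in one protocol and 2 hours in the other, then lysed. Phospho-signal in lysates was read by bead-based donor/acceptor proximity assay. pS6K1 and pAKT IC50 values were compared to judge mTORC1 over mTORC2 selectivity, at 90 min and at 24 hrs.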

IC50 [2] | IC50 [3] | Compound | AKT (PKB) Ser473 phosphorylation (human adipocytes) | glucose uptake (human adipocytes) | enhanced survival (Lmna−/− mice) | Akt phosphorylation (S473) (PC3 cells) | mTORC1 selective @ 24 hrs [1] | mTORC1 selective @ 90 min (mTORC1 over mTORC2)
– | – | CO[C@H]1C[C@@H]2CC[C@@H](C)[C@@](O)(O2)C(=O)C(=O)N2CCCC[C@H]2C(=O)O[C@H]([C@H](C)C[C@@H]2CC[C@@H](O)[C@H](OC)C2)CC(=O)[C@H](C)/C=C(\C)[C@@H](O)[C@@H](OC)C(=O)[C@H](C)C[C@H](C)/C=C/C=C/C=C/1C [rapamycin] | reduced AKT (PKB) Ser473 phosphorylation | reduced glucose uptake | ~50% | strongly decreased Akt phosphorylation | – | –
≥ 1000 nM | 1 to 10 nM | CO[C@@H]1C[C@H](C[C@@H](C)[C@@H]2CC(=O)[C@H](C)/C=C(\C)[C@@H](O)[C@@H](OC)C(=O)[C@H](C)C[C@H](C)/C=C/C=C/C=C(\C)[C@@H](OC[C@@H]3COCCO3)C[C@@H]3CC[C@@H](C)[C@@](O)(O3)C(=O)C(=O)N3CCCC[C@H]3C(=O)O2)CC[C@H]1OCCO [I-85, (1R,9S,12S,15R,16E,18R,19R,21R,23S,24E,26E,28E,30S,32S,35R)-30-[[(2S)-1,4-dioxan-2-yl]methoxy]-1,18-dihydroxy-12-[(1R)-2-[(1S,3R,4R)-4-(2-hydroxyethoxy)-3-methoxy-cyclohexyl]-1-methyl-ethyl]-19-methoxy-15,17,21,23,29,35-hexamethyl-11,36-dioxa-4-azatricyclo[30.3.1.04,9]hexatriaconta-16,24,26,28-tetraene-2,3,10,14,20-pentone] | – | – | – | – | Yes | Yes
≥ 1000 nM | ≥ 1000 nM | CO[C@@H]1/C(C)=C/[C@@H](C)C(=O)C[C@@H]([C@H](C)C[C@@H]2CC[C@@H](O)[C@H](OC)C2)OC(=O)[C@@H]2CCCCN2C(=O)C(=O)[C@]2(O)O[C@@H](CC[C@H]2C)C[C@H](OCCOC2COC2)/C(C)=C/C=C/C=C/[C@@H](C)C[C@@H](C)C(=O)[C@@H]1OC [I-97, (1R,9S,12S,15R,16E,18R,19R,21R,23S,24E,26E,28E,30S,32S,35R)-1-hydroxy-12-[(1R)-2-[(1S,3R,4R)-4-hydroxy-3-methoxy-cyclohexyl]-1-methyl-ethyl]-18,19-dimethoxy-15,17,21,23,29,35-hexamethyl-30-[2-(oxetan-3-yloxy)ethoxy]-11,36-dioxa-4-azatricyclo[30.3.1.0^4,9]hexatriaconta-16,24,26,28-tetraene-2,3,10,14,20-pentone] | – | – | – | – | No | No
≥ 1000 nM | ≥ 1000 nM | COCCO[C@@H]1CC[C@@H](C[C@@H](C)[C@@H]2CC(=O)[C@H](C)/C=C(\C)[C@@H](OC)[C@@H](OC)C(=O)[C@H](C)C[C@H](C)/C=C/C=C/C=C(\C)[C@@H](OCCOC3COC3)C[C@@H]3CC[C@@H](C)[C@@](O)(O3)C(=O)C(=O)N3CCCC[C@H]3C(=O)O2)C[C@H]1OC [I-83, (1R,9S,12S,15R,16E,18R,19R,21R,23S,24E,26E,28E,30S,32S,35R)-1-hydroxy-18,19-dimethoxy-12-[(1R)-2-[(1S,3R,4R)-3-methoxy-4-(2-methoxyethoxy)cyclohexyl]-1-methyl-ethyl]-15,17,21,23,29,35-hexamethyl-30-[2-(oxetan-3-yloxy)ethoxy]-11,36-dioxa-4-azatricyclo[30.3.1.0^4,9]hexatriaconta-16,24,26,28-tetraene-2,3,10,14,20-pentone] | – | – | – | – | No | No
– | 1 to 10 nM | CO[C@@H]1C[C@H](C[C@@H](C)[C@@H]2CC(=O)[C@H](C)/C=C(\C)[C@@H](O)[C@@H](OC)C(=O)[C@H](C)C[C@H](C)/C=C/C=C/C=C(\C)[C@@H](OCC3COCCO3)C[C@@H]3CC[C@@H](C)[C@@](O)(O3)C(=O)C(=O)N3CCCC[C@H]3C(=O)O2)CC[C@H]1OC(F)F (stereo partly drawn) [I-9, (24E,26E,28E,29E,32R,33S,34R,35R,37S,39S,41S,42S,44R,45R,55R)-42-[(1R)-2-[(1S,3R,4R)-4-(difluoromethoxy)-3-methoxy-cyclohexyl]-1-methyl-ethyl]-41-(1,4-dioxan-2-ylmethoxy)-44,55-dihydroxy-45-methoxy-32,33,34,35,46,47-hexamethyl-66,67-dioxa-56-azatricyclohexatriaconta-24,26,28(46),29(47)-tetraene-48,49,50,51,52-pentone] | – | – | – | – | Yes | –
– | 10 to 100 nM | COCCOCCO[C@H]1C[C@@H]2CC[C@@H](C)[C@@](O)(O2)C(=O)C(=O)N2CCCC[C@H]2C(=O)O[C@H]([C@H](C)C[C@@H]2CC[C@@H](OC)[C@H](OC)C2)CC(=O)[C@H](C)/C=C(\C)[C@@H](OC)[C@@H](OC)C(=O)[C@H](C)C[C@H](C)/C=C/C=C/C=C/1C [I-31, (24E,26E,28E,29E,35R,36S,37R,38R,40S,42S,44S,45S,46R,47R,56R)-45-[(1R)-2-[(1S,3R,4R)-3,4-dimethoxycyclohexyl]-1-methyl-ethyl]-56-hydroxy-46,47-dimethoxy-44-[2-(2-methoxyethoxy)ethoxy]-35,36,37,38,48,49-hexamethyl-64,65-dioxa-57-azatricyclohexatriaconta-24,26,28(48),29(49)-tetraene-50,51,52,53,54-pentone] | – | – | – | – | Yes | –
– | 1 to 10 nM | COCCOCCO[C@H]1C[C@@H]2CC[C@@H](C)[C@@](O)(O2)C(=O)C(=O)N2CCCC[C@H]2C(=O)O[C@H]([C@H](C)C[C@@H]2CC[C@@H](OCCOC)[C@H](OC)C2)CC(=O)[C@H](C)/C=C(\C)[C@@H](OC)[C@@H](OC)C(=O)[C@H](C)C[C@H](C)/C=C/C=C/C=C/1C [I-47, (24E,26E,28E,29E,37R,38S,39R,40R,42S,44S,46S,47S,48R,49R,58R)-58-hydroxy-48,49-dimethoxy-46-[2-(2-methoxyethoxy)ethoxy]-47-[(1R)-2-[(1S,3R,4R)-3-methoxy-4-(2-methoxyethoxy)cyclohexyl]-1-methyl-ethyl]-37,38,39,40,50,51-hexamethyl-66,67-dioxa-59-azatricyclohexatriaconta-24,26,28(50),29(51)-tetraene-52,53,54,55,56-pentone] | – | – | – | – | Yes | –
